Source: ChEMBL document CHEMBL1138936, “Potent hFPRL1 (ALXR) agonists as potential anti-inflammatory agents” (Bioorg Med Chem Lett, 2006)
Calls of active or inactive are those of the source. The calls are words filed in the database; no cut-off is given here.

Legend:
[1] = target: T1, N-formyl peptide receptor 2 (Homo sapiens, UniProt P25090); assay: Activity at human FPRL1-mediated calcium mobilization in CHO cells; type: functional, cell-based
T1 sequence (P25090 whole entry): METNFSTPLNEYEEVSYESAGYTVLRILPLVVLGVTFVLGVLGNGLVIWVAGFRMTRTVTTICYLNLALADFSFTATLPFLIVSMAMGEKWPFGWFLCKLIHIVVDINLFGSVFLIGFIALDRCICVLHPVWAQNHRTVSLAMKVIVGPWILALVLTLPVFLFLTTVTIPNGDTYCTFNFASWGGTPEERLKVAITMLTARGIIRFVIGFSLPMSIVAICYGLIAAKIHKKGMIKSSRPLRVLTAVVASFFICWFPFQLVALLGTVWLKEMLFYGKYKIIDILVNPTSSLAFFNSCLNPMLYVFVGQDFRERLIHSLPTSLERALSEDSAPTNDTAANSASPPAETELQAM

[2] = system: PMNL; assay: Inhibition of IL8-induced PMN migration; type: functional, cell-based; conditions: Homo sapiens
[3] = system: PMNL; assay: Inhibition of fMLP-induced PMN migration; type: functional, cell-based; conditions: Homo sapiens
[4] = Clearance in rat at 0.5 mg/kg, iv; type: ADME, organism-based; set-up: dose 0.5 mg/kg, route intravenous; conditions: in vivo
[5] = system: Mus musculus; assay: Unbound ligand concentration in mouse plasma at 5 mg/kg; type: ADME, organism-based; set-up: dose 5 mg/kg; conditions: in vivo
[6] = system: Mus musculus; assay: Unbound ligand concentration in mouse plasma at 50 mg/kg; type: ADME, organism-based; set-up: dose 50 mg/kg; conditions: in vivo
[7] = system: Mus musculus; assay: Unbound ligand concentration in mouse plasma at 16.6 mg/kg; type: ADME, organism-based; set-up: dose 16.6 mg/kg; conditions: in vivo
[8] = Bioavailability in rat at 2 mg/kg, po; type: ADME, organism-based; conditions: in vivo
[9] = Protein binding in mouse plasma; type: ADME, organism-based; conditions: read-out: PPB (converted)
[10] = system: Mus musculus; assay: Reduction of edema in mouse ear inflammation model at 5 mg/kg, po; type: functional; set-up: scale not given: the % may be the effect or the level left
[11] = Half life in rat at 0.5 mg/kg, iv; type: ADME, organism-based; set-up: dose 0.5 mg/kg, route intravenous; conditions: in vivo
[12] = system: Mus musculus; assay: Reduction of edema in mouse ear inflammation model at 16.6 mg/kg, po; type: functional; set-up: scale not given: the % may be the effect or the level left
[13] = system: Mus musculus; assay: Reduction of edema in mouse ear inflammation model at 50 mg/kg, po; type: functional; set-up: scale not given: the % may be the effect or the level left
[14] = species on record: Mus musculus; assay: Reduction of swelling in mouse ear at 0.25 ug; type: functional; set-up: scale not given: the % may be the effect or the level left
[15] = species on record: Mus musculus; assay: Reduction of swelling in mouse ear at 25 ug; type: functional; set-up: scale not given: the % may be the effect or the level left
[16] = species on record: Mus musculus; assay: Reduction of swelling in mouse ear at 2.5 ug; type: functional; set-up: scale not given: the % may be the effect or the level left
[17] = species on record: Mus musculus; assay: Reduction of swelling in mouse ear at 30 ug; type: functional; set-up: scale not given: the % may be the effect or the level left
[18] = system: Mus musculus; assay: Reduction of edema in mouse ear inflammation model at 1 mg/kg, po; type: functional; set-up: scale not given: the % may be the effect or the level left

EC50 [1] | Structure (SMILES) | other results
100 nM | CCn1c(C(C)C)c(NC(=O)Nc2ccc(C)c(F)c2)c(=O)n1-c1ccccc1 | 
> 10000 nM | Cc1c(NC(=O)Nc2nccs2)c(=O)n(-c2ccccc2)n1C | 
30 nM | CSc1ccc(NC(=O)Nc2c(C(C)C)n(C)n(-c3cnc4ccccc4c3)c2=O)cc1 | 
1470 nM | CC(C)c1c(NC(=O)Nc2ccc(C(F)(F)F)cc2)c(=O)n(C2=NCCS2)n1C | 
23 nM | Cn1c(C(C)(C)C)c(NC(=O)Nc2ccc(Cl)cc2)c(=O)n1-c1ccccc1 | 
 | CC(C)c1c(NC(=O)Nc2ccc(Cl)cc2)c(=O)n(-c2ccccc2)n1C | IC50 [2]: 240 nM; IC50 [3]: 640 nM; clearance [4]: 2.1 mL/min/kg; unbound plasma concentration [5]: 14 nM; unbound plasma concentration [6]: 185 nM; unbound plasma concentration [7]: 17 nM; bioavailability [8]: 91%; fraction unbound [9]: 0.021; Activity [10]: 11%; half-life [11]: 2.78 h; Activity [12]: 39%; Activity [13]: 58%
4850 nM | Cc1c(NC(=O)Nc2ccc(F)cc2)c(=O)n(-c2ccccc2)n1C | 
1260 nM | Cc1ccc(NC(=O)Nc2c(C)n(C)n(-c3ccccc3)c2=O)cc1 | 
310 nM | CCc1c(NC(=O)Nc2ccc(C)c(F)c2)c(=O)n(-c2ccccc2)n1C | 
90 nM | Cc1c(NC(=O)Nc2ccc(Br)cc2)c(=O)n(-c2ccccc2)n1C | 
490 nM | Cc1c(NC(=O)Nc2ccc(Cl)cc2)c(=O)n(-c2ccccc2)n1C | 
> 10000 nM | Cc1c(NC(=O)Nc2ccccc2)c(=O)n(-c2ccccc2)n1C | 
30 nM | Cc1c(NC(=O)Nc2ccc(I)cc2)c(=O)n(-c2ccccc2)n1C | IC50 [2]: 2000 nM; Activity [14]: 31%; IC50 [3]: 2000 nM; Activity [15]: 52%; Activity [16]: 35%
44 nM | CC(C)c1c(NC(=O)Nc2ccc(C(F)(F)F)cc2)c(=O)n(-c2cnc3ccccc3c2)n1C | 
5880 nM | Cc1c(NC(=O)Nc2ccc3c(c2)OCO3)c(=O)n(-c2ccccc2)n1C | 
> 10000 nM | CC1C(N(C)C(=O)N(C)c2ccc(I)cc2)C(=O)N(c2ccccc2)N1C (stereo not given) | IC50 [2]: > 10000 nM; Activity [14]: 2%; IC50 [3]: > 10000 nM; Activity [15]: 8%; Activity [16]: 8%
> 10000 nM | Cc1cc(NC(=O)Nc2c(C)n(C)n(-c3ccccc3)c2=O)ccc1F | 
 | C[C@@H]1C[C@H]2[C@@H]3CCC4=CC(=O)C=C[C@]4(C)[C@@]3(F)[C@@H](O)C[C@]2(C)[C@@]1(O)C(=O)CO [DEXAMETHASONE] | Activity [17]: 71%; Activity [18]: 54%
 | CCCCC(Oc1ccccc1)[C@@H](O)/C=C/C=C\C=C\C=C\[C@@H](O)[C@@H](O)CCCC(=O)O (stereo not given in full) | Activity [15]: Active

EC50 [1] | Structure (SMILES) | other results
83 nM | Cc1ccc(NC(=O)Nc2c(C(C)(C)C)n(C)n(-c3ccccc3)c2=O)cc1F | 
> 10000 nM | Cc1c(NC(=O)Nc2cccc(Cl)c2)c(=O)n(-c2ccccc2)n1C | 
> 10000 nM | CC(C)c1c(NC(=O)Nc2ccccc2Cl)c(=O)n(-c2ccccc2)n1C | 
3700 nM | Cc1c(NC(=O)Nc2ccc(C#N)cc2)c(=O)n(-c2ccccc2)n1C | 
100 nM | Cc1c(NC(=O)Nc2ccc(C(F)(F)F)cc2)c(=O)n(-c2ccccc2)n1C | 
150 nM | CC(C)c1c(NC(=O)Nc2ccc(C(F)(F)F)cc2)c(=O)n(-c2cncnc2)n1C | 
980 nM | Cc1ccc(NC(=O)Nc2c(C)n(C)n(-c3ccccc3)c2=O)cc1F | 
12300 nM | Cc1c(NC(=O)Nc2ccc(C(C)C)cc2)c(=O)n(-c2ccccc2)n1C | 
250 nM | CC(C)c1c(NC(=O)Nc2ccc(Cl)cc2)c(=O)n(-c2cncnc2)n1C | 
140 nM | CCc1c(NC(=O)Nc2ccc(Cl)cc2)c(=O)n(-c2ccccc2)n1C | 
770 nM | CCc1ccc(NC(=O)Nc2c(C)n(C)n(-c3ccccc3)c2=O)cc1 | 
43 nM | CSc1ccc(NC(=O)Nc2c(C(C)C)n(C)n(-c3cncnc3)c2=O)cc1 | 
2730 nM | COc1ccc(NC(=O)Nc2c(C)n(C)n(-c3ccccc3)c2=O)cc1 | 
> 10000 nM | Cc1c(NC(=O)Nc2ccccc2Cl)c(=O)n(-c2ccccc2)n1C | 
540 nM | CC(C)c1c(NC(=O)Nc2ccc(Cl)cc2)c(=O)n(C2=NCCS2)n1C | 
170 nM | CSc1ccc(NC(=O)Nc2c(C)n(C)n(-c3ccccc3)c2=O)cc1 | 
5130 nM | CSc1ccc(NC(=O)Nc2c(C(C)C)n(C)n(C3=NCCS3)c2=O)cc1 | 
81 nM | Cc1ccc(NC(=O)Nc2c(C(C)C)n(C)n(-c3ccccc3)c2=O)cc1F | 
80 nM | CC(C)c1c(NC(=O)Nc2ccc(Cl)cc2)c(=O)n(-c2cnc3ccccc3c2)n1C | 
